In the Kinase Knowledgebase extract (Sharma et al. 2016):
pIC50: −log10 of the molar value.

Columns and labels:
MAPK14 (human) [1] = target: MAPK14 (human) (UniProt Q16539); test: Inhibition of TNF Production (PBMC)
MAPK14 (human) [2] = target: MAPK14 (human) (UniProt Q16539); test: Inhibition of TNF Production (U937 Cells)
MAPK14 = MAPK14 (UniProt Q16539); test: p38 alpha Inhibition
Chain of MAPK14 (Q16539 whole entry, looked up): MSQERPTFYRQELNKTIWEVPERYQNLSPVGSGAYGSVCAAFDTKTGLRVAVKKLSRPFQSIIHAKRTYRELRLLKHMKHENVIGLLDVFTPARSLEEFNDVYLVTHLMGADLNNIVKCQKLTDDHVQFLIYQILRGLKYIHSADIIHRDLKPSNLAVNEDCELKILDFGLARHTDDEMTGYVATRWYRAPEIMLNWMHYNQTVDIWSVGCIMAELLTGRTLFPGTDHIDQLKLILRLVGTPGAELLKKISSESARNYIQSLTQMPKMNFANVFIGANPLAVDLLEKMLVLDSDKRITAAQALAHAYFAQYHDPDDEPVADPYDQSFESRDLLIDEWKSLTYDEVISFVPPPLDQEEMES

Chain of MAPK14 (human) (Q16539 whole entry, looked up): as above

Cc1cc(-c2ccnc(C#N)c2)n(-c2ccc(F)cc2)n1
pIC50 (MAPK14 (human) [1]): < 5.00
pIC50 (MAPK14 (human) [2]): < 5.00

CCNc1cc(-c2ccncc2)n(-c2ccc(F)cc2)n1
pIC50 (MAPK14 (human) [1]): < 5.00
pIC50 (MAPK14 (human) [2]): 5.00

Cc1cc(-c2ccnc(NCc3ccccc3)c2)n(-c2ccc(Cl)cc2)n1
pIC50 (MAPK14 (human) [1]): 6.52
pIC50 (MAPK14 (human) [2]): 6.70

Fc1ccc(-n2nccc2-c2ccnc(Cl)c2)cc1
pIC50 (MAPK14 (human) [1]): 5.09
pIC50 (MAPK14 (human) [2]): 5.00

CCCc1cnn(-c2cccc(F)c2)c1-c1ccncc1
pIC50 (MAPK14 (human) [1]): 5.89
pIC50 (MAPK14): 5.83
pIC50 (MAPK14 (human) [2]): 6.08

Cc1cccc(-n2nc(C)cc2-c2cc[nH]c(=O)c2)c1
pIC50 (MAPK14 (human) [1]): 5.62
pIC50 (MAPK14 (human) [2]): 5.00

Cc1cccc(-n2nc(C)cc2-c2ccnc(N(C)Cc3ccccc3)c2)c1
pIC50 (MAPK14 (human) [1]): < 5.00
pIC50 (MAPK14 (human) [2]): 5.00

Cc1ccc(-n2nc(C)cc2-c2ccnc(NCc3cccnc3)c2)cc1
pIC50 (MAPK14 (human) [1]): 5.82

O=C(c1cnn(-c2ccc(F)cc2)c1-c1ccncc1)N1CCNCC1
pIC50 (MAPK14 (human) [1]): < 5.00
pIC50 (MAPK14 (human) [2]): 5.00

Cc1cnn(Cc2ccccc2)c1-c1ccncc1
pIC50 (MAPK14 (human) [1]): < 5.00

Cc1cc(-c2ccnc(NCCc3ccccc3)c2)n(-c2ccc(Cl)cc2)n1
ID50 (MAPK14 (human) [1]): 100 nM
pIC50 (MAPK14 (human) [2]): 6.07

Cc1ccc(-n2nc(C)cc2-c2ccnc(NCCO)c2)cc1
pIC50 (MAPK14 (human) [1]): 6.70

Cc1cccc(-n2nc(C)cc2-c2ccnc(NCc3ccccc3)c2)c1
pIC50 (MAPK14 (human) [1]): 7.00

Cc1cccc(-n2nc(C)cc2-c2ccnc(N(C)C)c2)c1
pIC50 (MAPK14 (human) [1]): 5.47
pIC50 (MAPK14 (human) [2]): 5.00

COC(=O)c1cnn(-c2ccc(F)cc2)c1-c1ccncc1
pIC50 (MAPK14 (human) [2]): 5.00

CCNc1cc(-c2cc(C)nn2-c2ccc(C)cc2)ccn1
pIC50 (MAPK14 (human) [1]): 6.70
pIC50 (MAPK14 (human) [2]): 6.14

Cc1cc(-c2ccnc(N=[N+]=[N-])c2)n(-c2cccc(F)c2)n1
pIC50 (MAPK14 (human) [1]): 5.66

COc1cc(-c2cc(C)nn2-c2cccc(C)c2)ccn1
pIC50 (MAPK14 (human) [1]): 5.72
pIC50 (MAPK14 (human) [2]): 5.88

Fc1ccc(-n2ncc(N3CCNCC3)c2-c2ccncc2)cc1
pIC50 (MAPK14 (human) [1]): < 5.00
pIC50 (MAPK14 (human) [2]): 5.00

Cc1cccc(-n2nc(C)cc2-c2ccnc(N(C)CCc3ccccc3)c2)c1
pIC50 (MAPK14 (human) [1]): 6.10

Cc1cnn(-c2ccc(F)cc2)c1-c1ccncc1
pIC50 (MAPK14 (human) [1]): 7.00
pIC50 (MAPK14 (human) [2]): 5.00

Cc1cccc(-n2nc(C)cc2-c2ccnc(N)c2)c1
pIC50 (MAPK14 (human) [1]): 6.30

Cc1cccc(-n2nc(C)cc2-c2ccnc(NCCO)c2)c1
pIC50 (MAPK14 (human) [1]): 7.00
pIC50 (MAPK14 (human) [2]): 6.68

Cc1cccc(-n2nc(C)cc2-c2ccnc(C#N)c2)c1
pIC50 (MAPK14 (human) [1]): 5.77
pIC50 (MAPK14 (human) [2]): 5.78

Cc1cnn(-c2cccc(F)c2)c1-c1ccncc1
pIC50 (MAPK14 (human) [1]): 5.40

Fc1ccc(-n2nccc2-c2ccnc(NCc3ccccc3)c2)cc1
pIC50 (MAPK14 (human) [1]): 5.89
pIC50 (MAPK14 (human) [2]): 6.62

Cc1cccc(-n2ncc(C)c2-c2ccncc2)c1
pIC50 (MAPK14 (human) [1]): 6.22
pIC50 (MAPK14 (human) [2]): 6.18

Cc1ccc(-n2nc(C)cc2-c2ccnc(N(C)C)c2)cc1
pIC50 (MAPK14 (human) [1]): < 5.00

NC(=O)c1cnn(-c2ccc(F)cc2)c1-c1ccncc1
pIC50 (MAPK14 (human) [1]): < 5.00
pIC50 (MAPK14 (human) [2]): < 5.00

Cc1cccc(-n2nc(C)cc2-c2ccnc(OCc3ccccc3)c2)c1
pIC50 (MAPK14 (human) [1]): < 5.00
pIC50 (MAPK14 (human) [2]): 5.58

Cc1cc(-c2ccnc(Cl)c2)n(-c2cccc(F)c2)n1
pIC50 (MAPK14 (human) [2]): < 5.00

Cc1cccc(-n2nc(C)cc2-c2ccnc(NCCc3ccccc3)c2)c1
pIC50 (MAPK14 (human) [1]): 7.70
pIC50 (MAPK14 (human) [2]): 7.30

CNc1cc(-c2cc(C)nn2-c2ccc(C)cc2)ccn1
pIC50 (MAPK14 (human) [1]): 7.00
pIC50 (MAPK14 (human) [2]): 4.75

Cc1ccc(-n2nc(C)cc2-c2ccnc(Cl)c2)cc1
pIC50 (MAPK14 (human) [1]): 5.54

Cc1ccc(-n2nc(C)cc2-c2ccnc(NCc3ccccc3)c2)cc1
pIC50 (MAPK14 (human) [1]): 5.96

Cc1ccc(-n2nc(C)cc2-c2cccc(N)c2)cc1
pIC50 (MAPK14 (human) [1]): < 5.00

Cc1cccc(-n2nc(C)cc2-c2ccnc(C(N)=O)c2)c1
pIC50 (MAPK14 (human) [1]): 5.30

Cc1cc(-c2ccnc(NCc3cccnc3)c2)n(-c2cccc(F)c2)n1
pIC50 (MAPK14 (human) [1]): 6.22

CCc1cnn(-c2cccc(F)c2)c1-c1ccncc1
pIC50 (MAPK14 (human) [1]): 6.15
pIC50 (MAPK14): 4.78
pIC50 (MAPK14 (human) [2]): 5.94

Cc1cccc(-n2nc(C)cc2-c2ccnc(S(C)(=O)=O)c2)c1
pIC50 (MAPK14 (human) [1]): < 5.00

Fc1ccc(-n2nccc2-c2ccnc(NCCc3ccccc3)c2)cc1
pIC50 (MAPK14 (human) [1]): 5.00

O=C(O)c1cnn(-c2ccc(F)cc2)c1-c1ccncc1
pIC50 (MAPK14 (human) [2]): 5.00

Cc1cc(-c2ccnc(NCCO)c2)n(-c2ccc(Cl)cc2)n1
pIC50 (MAPK14 (human) [1]): 7.00
pIC50 (MAPK14 (human) [2]): 6.32
